Laboratory results taken from patent publication US11668709B2, “System for monitoring post-translational modification of protein using bio-sensor with gap and manufacturing method for bio-sensor” (KOREA INSTITUTE OF SCIENCE AND TECHNOLOGY, priority 2018, dated 2023).

What was measured:
Assay type in all cases: biochemical
O-GlcNAcase [1] = assay: Verification Experiment 4: impedance with and without O-GlcNAcase inhibitor, third antibody (O-g Antibody); details: 100 μM thiamet G treated compared to untreated; tau protein 0.5-524 fg/ml; O-glycosylation site antibody
Experimental: (§1) Tau protein at a concentration of 5250 ng/mL was diluted 1/10 at various concentrations (0.5 fg/mL to 50 pg/mL) with 0.1% PBST and treated with Thiamet G treatment inhibiting O-GlcNAcase or BZX2 promoting O-GlcNAcase as needed.
(§2) The impedance Z was measured with and without the substance that inhibits O-GlcNAcase, using the system for monitoring post-translational modification of protein according to the embodiment of the present disclosure.

O-GlcNAcase [2] = assay: Verification Experiment 6: impedance of tau protein with second or third antibody, with and without thiamet G; details: 5 pg/ml tau protein
Experimental: as §1, §2
(a) 5 pg/ml of tau protein, (b) 5 pg/ml of tau protein+second antibody (AT-8 antibody), and (c) 5 pg/ml of tau protein+third antibody (O-g Antibody) were introduced into the sensor 100, respectively, and then impedance Z was measured for PBS, Neg, Thiamet G untreated, and 100 μM of thiamet G treated samples, respectively.

O-GlcNAcase [3] = assay: Verification Experiment 5: impedance with O-GlcNAcase inhibitor or promoter, second antibody (AT-8 antibody); details: 100 μM BZX2 treated; tau protein 0.5-500 fg/ml; AT-8 phosphorylation site antibody
Experimental: as §1
The impedance Z was measured for when treated with a substance that inhibits O-GlcNAcase; and when treated with a substance that promotes O-GlcNAcase of O-glycosylated tau protein, using the system for monitoring post-translational modification of protein according to the embodiment of the present disclosure.
A sample containing the second conjugate S2 (microbead+first antibody+tau protein) and an antibody (second antibody, AT-8 antibody) that can bind to the phosphorylation site of tau protein was introduced into the sensor 100, and impedance Z was measured for each of the following: (a) treated with 100 μM of thiamet G which is a substance that inhibits O-GlcNAcase; and (b) treated with 100 μM of BZX2 which is substance that promotes O-GloNAcase, for respective concentrations (0.5 fg/ml, 5 fg/ml, 50 fg/ml, and 500 fg/ml) of tau protein.
The impedance Z was measured from each sample when the first sample containing the second conjugate S2 was introduced into the sensor 100 and when the second sample containing the third conjugate S3 was introduced into the sensor 100.

| Compound | difference in impedance (Z1−Z3) (O-GlcNAcase [1]) | impedance Z2 measured as the second antibody (AT-8 antibody) was added (O-GlcNAcase [2]; 100 μM thiamet G treated (untreated 33.65 MΩ)) [MΩ] | impedance Z3 measured as the third antibody (O-g antibody) was added (O-GlcNAcase [2]; 100 μM thiamet G treated (untreated 38.27 MΩ)) [MΩ] | impedance difference (Z1−Z2) (O-GlcNAcase [3]) |
| --- | --- | --- | --- | --- |
| CCN=C1N[C@@H]2[C@@H](O)[C@H](O)[C@@H](CO)O[C@@H]2S1 [thiamet G] | greater | 37.65 | 35.0 | – |
| BZX2 | – | – | – | increases as the concentration of tau protein increases |
